Assay results from patent US7341836B2, “Modified cyclic nucleotide gated ion channels” (The Regents of the University of Colorado, priority 2001, dated 2008).
Entries after “also recorded” stand apart in the source; their conditions may differ.

What was measured:
PDE VIII = target: T1, PDE VIII (Mus musculus, UniProt O88502); details: cited from earlier work
T1 construct: host or cells: heterologously expressed
T1 sequence (O88502 1-823): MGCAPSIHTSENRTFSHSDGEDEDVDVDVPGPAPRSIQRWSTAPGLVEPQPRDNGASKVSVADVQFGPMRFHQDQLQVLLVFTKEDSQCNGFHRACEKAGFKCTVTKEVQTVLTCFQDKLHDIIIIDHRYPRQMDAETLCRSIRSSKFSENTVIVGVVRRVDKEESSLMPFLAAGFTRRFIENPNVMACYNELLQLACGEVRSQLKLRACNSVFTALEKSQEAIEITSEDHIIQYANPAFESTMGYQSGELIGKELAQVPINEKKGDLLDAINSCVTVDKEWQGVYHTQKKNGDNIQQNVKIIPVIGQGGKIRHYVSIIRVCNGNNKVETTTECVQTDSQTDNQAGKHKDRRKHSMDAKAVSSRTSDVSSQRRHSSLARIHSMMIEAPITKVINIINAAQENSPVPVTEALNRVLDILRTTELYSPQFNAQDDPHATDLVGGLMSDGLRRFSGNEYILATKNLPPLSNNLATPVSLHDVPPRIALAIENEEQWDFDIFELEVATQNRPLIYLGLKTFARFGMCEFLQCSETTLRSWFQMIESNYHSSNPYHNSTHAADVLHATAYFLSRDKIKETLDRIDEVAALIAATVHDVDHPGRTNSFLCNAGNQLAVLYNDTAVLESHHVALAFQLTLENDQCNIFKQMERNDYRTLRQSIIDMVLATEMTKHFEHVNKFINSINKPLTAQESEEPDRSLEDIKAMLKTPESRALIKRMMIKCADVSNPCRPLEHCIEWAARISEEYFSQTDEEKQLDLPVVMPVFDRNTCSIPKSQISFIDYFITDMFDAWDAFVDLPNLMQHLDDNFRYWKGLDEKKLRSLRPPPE

PDE VII = target: T2, PDE VII (UniProt Q9QXQ1); details: cited from earlier work
T2 sequence (Q9QXQ1 1-446): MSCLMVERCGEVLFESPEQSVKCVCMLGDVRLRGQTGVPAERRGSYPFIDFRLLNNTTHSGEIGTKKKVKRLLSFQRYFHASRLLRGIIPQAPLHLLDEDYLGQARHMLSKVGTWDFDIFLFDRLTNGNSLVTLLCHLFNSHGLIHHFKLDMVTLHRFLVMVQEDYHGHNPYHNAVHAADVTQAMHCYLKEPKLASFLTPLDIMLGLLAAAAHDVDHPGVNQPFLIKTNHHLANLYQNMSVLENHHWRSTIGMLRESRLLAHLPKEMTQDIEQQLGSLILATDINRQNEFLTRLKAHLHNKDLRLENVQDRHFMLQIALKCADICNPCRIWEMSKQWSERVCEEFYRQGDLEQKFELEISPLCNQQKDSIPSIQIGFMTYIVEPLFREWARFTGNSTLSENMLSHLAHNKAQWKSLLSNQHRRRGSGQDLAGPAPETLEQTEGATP

PDE I = details: cited from earlier work
[1] = system: PDE activity in HEK-293 cells; experiment: Effect and in vivo KI of PDE inhibitors on forskolin-induced Ca2+ influx through CNG channels; details: for effect on forskolin-induced Ca2+ influx: 1 μM forskolin, IBMX 10 or 100 μM, RO-20-1724 10 μM; for time to complete equilibration across the plasma membrane of HEK-293 cells: human, pH 7.4
Procedure: Next, experiments were conducted to pharmacologically identify the PDE type(s) that regulates cAMP levels near CNG channels. The C460W/E583M channels were used to monitor forskolin-stimulated cAMP accumulation in the presence and absence of a series of PDE inhibitors. […] In these experiments, inhibitor concentrations were used at which specific PDE types should be inhibited.
This required developing a quantitative framework to assess the relationship between cAMP synthesis, hydrolysis, and redistribution throughout the cell. Thus, the following formalism was adopted:
[formula] where C is the steady-state rate of cAMP synthesis by AC, Vmax is the maximal rate of cAMP hydrolysis, Km is the Michaelis constant for PDE, and kf is the rate constant of cAMP flux out of the microdomain. In order to estimate KI for the PDE inhibitors two assumptions were made. First, it was assumed that at low levels of AC stimulation and PDE inhibition, the concentration of local cAMP is low and diffusion of cAMP out of the microdomain is negligible. Second, the assumption was made that cAMP levels reach steady-state shortly after AC stimulation (i.e., equal rates of synthesis and hydrolysis). With these assumptions, Eq. 4 can be simplified to:
[formula] […] At low cAMP concentrations (<K1/2 for the channel), the cAMP concentration is proportional to the square root of the Ca^2+ influx rate (the Hill coefficient for channel activation is approximately 2). Thus, KI, can be estimated using a linear fit to the square root of the slopes of the fluorescence traces as a function of inhibitor concentration (See, FIG. 11).
Increases in local cAMP concentration activate CNG channels and trigger Ca^2+ entry. Ca^2+ influx was monitored in cell populations using the fluorescent indicator fura-2.
Additions were made by pipetting stock solutions into a stirred cuvette. The solutions were then assayed using an LS-50B spectrofluorimeter (Perkin Elmer). […]
Fluorescence was measured at an excitation wavelength of 380 nm and an emission wavelength of 510 nm. […] The MATLAB software package (MathWorks) was used for curve fitting and simulations.
The C460W/E583M channels were used to monitor forskolin-stimulated cAMP accumulation in the presence and absence of a series of PDE inhibitors. […] In these experiments, inhibitor concentrations were used at which specific PDE types should be inhibited.
[formula] where C is the steady-state rate of cAMP synthesis by AC, Vmax is the maximal rate of cAMP hydrolysis, Km is the Michaelis constant for PDE, and kf is the rate constant of cAMP flux out of the microdomain. In order to estimate KI for the PDE inhibitors, two assumptions were made.

[2] = C460W/E583M channels, 0.5 μM forskolin, n=4
[3] = FIG. 11, the experiments shown, C460W/E583M channels, 0.5 μM forskolin

## CCCCCC[C@@H]([C@@H](C)O)n1cnc2c(N)ncnc21 (racemic) [EHNA]
PDE VIII
  IC50: > 100 µM
PDE VII
  IC50: > 100 µM

## CCCCOc1cc(CC2CNC(=O)N2)ccc1OC (stereo not drawn) [RO-20-1724, 4-(3-butoxy-4-methoxybenzyl)-2-imidazolidinone]
PDE VIII
  IC50: > 200 µM
PDE I
  IC50: 200 µM
PDE VII
  IC50: > 200 µM
[1]; [2]
  Ki: 0.13 ± 0.02 µM
[1]; C460W/E583M channels
  effect on forskolin-induced Ca2+ influx: significant forskolin-induced Ca^2+ influx was observed; also recorded: influenced the time course of forskolin-induced Ca^2+ influx
[1]; [3]
  Ki: 0.14 µM
[1]
  time to complete equilibration across the plasma membrane of HEK-293 cells: < 180 s
[1]; Δ61-90/C460W/E583M channels, n=3
  Ki: 0.15 ± 0.02 µM

## COc1ccc(C2CNC(=O)C2)cc1OC1CCCC1 (stereo not drawn) [Rolipram]
PDE VIII
  IC50: > 200 µM
PDE I
  IC50: > 150 µM
PDE VII
  IC50: > 100 µM
[1]; 50 nM rolipram at 0 s, 0.5 μM forskolin at 180 s, C460W/E583M channels
  slope of ΔF/F0: 0.00062 s⁻¹
[1]; [2]
  Ki: 0.07 ± 0.02 µM
[1]; C460W/E583M channels
  effect on forskolin-induced Ca2+ influx: significantly increased the forskolin-induced Ca^2+ influx
[1]; [3]
  Ki: 0.09 µM

## CC(C)Cn1c(=O)n(C)c(=O)c2[nH]cnc21 [IBMX, 3-isobutyl-1-methylxanthine]
PDE VIII
  IC50: > 200 µM
PDE I
  IC50: 2 to 3 µM
PDE VII
  IC50: 2 to 8 µM
[1]; [2]
  Ki: 11 ± 2 µM
[1]; C460W/E583M channels
  effect on forskolin-induced Ca2+ influx: significant forskolin-induced Ca^2+ influx was observed; also recorded: influenced the time course of forskolin-induced Ca^2+ influx
[1]; [3]
  Ki: 10 µM
[1]
  time to complete equilibration across the plasma membrane of HEK-293 cells: < 180 s
